Test results: publication PMC3514216, “SRC Homology 2 Domain Binding Sites in Insulin, IGF-1 and FGF receptor mediated signaling networks reveal an extensive potential interactome” (Cell Communication and Signaling : CCS, 2012)

How the values were obtained:
Ptpn11_N SH2 domain = molecular target: T1, Ptpn11_N SH2 domain (Homo sapiens, UniProt Q06124); experiment: SPOT peptide array; assay type: binding; settings: GST-SH2 0.25 μM; for Array positive: membrane-bound peptide, 1 mM DTT, LiCor read-out; for Peptide array intensity (X mean): spot intensity as factor of array mean
T1 sequence (Q06124 6-102 limits assumed): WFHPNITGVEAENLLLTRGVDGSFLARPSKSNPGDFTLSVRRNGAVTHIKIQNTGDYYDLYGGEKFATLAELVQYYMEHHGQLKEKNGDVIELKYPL
Excerpt: (§1) The use of addressable peptide arrays is a reproducible and semi-quantitative approach that has been extensively validated for studying protein interactions with peptide ligands. To investigate connections between SH2 domain proteins and their putative phosphorylated docking sites on cell surface receptors, we developed addressable arrays consisting of 192 phosphotyrosine peptides. This peptide set was assembled using 71 phosphotyrosine peptide motifs corresponding to all of the cytoplasmic tyrosine residues within the FGF receptors (FGFR1-4), insulin receptor (InsR) and IGF-1 receptor (IGF-1R) (Figure 1A). Activation of these receptors results in the phosphorylation of associated scaffold proteins, and so 75 phosphotyrosine peptides corresponding to a comprehensive list of tyrosine residues within insulin receptor substrates (IRS-1 and IRS-2) and fibroblast receptor substrates (FRS-2 and FRS-3) were included. In addition, 33 phosphotyrosine peptides were incorporated from the downstream signaling proteins PLC-γ1, p130Cas (BCAR1) and p62DOK1. […] These control peptides provide a reference and establish the empirical cut-off for designated binding interactions (Table 1). No discrimination was made against peptides on the basis of reported phosphorylation state in order to examine a diverse and unbiased set of motifs. The resulting set of 192 phosphotyrosine peptides and their corresponding position in the proteins of origin is noted in Additional file 1: Table S1. Addressable arrays were synthesized as membrane-bound 11-mer peptides using the SPOT synthesis technique. While the majority of SH2 domains recognize residues C-terminal to the phosphotyrosine in their cognate peptide ligands, additional contacts between SH2 domains and residues N-terminal to the phosphotyrosine are observed for the SH2 domain of Sh2d1a (SAP) and cannot be ruled out in other cases. Peptides were synthesized with six flanking residues C-terminal to the phosphotyrosine and four residues N-terminal to the phosphotyrosine.
SH2 domains were arrayed as GST fusion proteins and detected using anti-GST primary antibodies and near-infrared labeled secondary antibodies. In an effort to present a dataset with minimal false positives, we chose an empirical cutoff based on the array average across all peptide spots to classify interactions (Figure 1A). In cases where the intensity of the signal for an individual SH2-domain binding event exceeded the mean intensity of all the peptides on the membrane by three-fold were scored as “array positives” [22]. Non-binding was judged in cases where the intensity of a spot was less than the mean intensity of all spots on the membrane and these were scored as “array negatives”. Peptides with signal intensities between 1X and 3X mean were scored as “indeterminate” and ascribed as neither array positive binding interactions nor array-negative non-binders. […] This signature may be indicative of promiscuity differences between phosphopeptides or there may be a subset of peptides which interact in a nonspecific fashion with either the GST fusion tag or one of the antibodies used for detection, resulting in false positives. Consistent with our goal of reducing the errors associated with identifying false-positives, we probed three separate arrays with three separate preps of the GST fusion tag alone. Potentially non-specificly interacting peptides (so-called ‘sticky’ peptides) were identified as any that bound to GST with above mean intensity in two out of three separate trials. This approach identifies any peptides which interact with GST or either of the recognition antibodies, a known confounding factor for downstream analysis. This conservative approach allows us to score many significant peptides as ‘binders’ which may have been indeterminate before when incorporating the ‘sticky’ peptides into the array average. […]

panel of 50 SH2 domains = experiment: SPOT peptide array probed with each of 50 GST-SH2 domains; assay type: binding; settings: SPOT192 peptide array; for SH2 Domains >3X: list of GST-SH2 domains with spot intensity >3X array mean (array-positive); for 2X < SH2 Domains < 3X: list of GST-SH2 domains with spot intensity between 2X and 3X array mean (indeterminate range)
Excerpt: as §1
To assess the potential network of SH2 domain interactions we selected 50 SH2 domains representing 28 of the 38 families of SH2 domains (Figure 1B) all of which we have previously shown can be expressed and purified. These include a number of extensively studied SH2 domains (Src, Grb2, PLCγ), as well as a number of less studied SH2 domains from proteins such as Shd, She, Shf, Slnk (Sh2d6), Sh2d1a (SAP), Sh2d1b (Eat-2), and Brdg1. To address potential variability in specificity within families we employed all members from the SHB, CRK, GRB2, SRC and ABL families (families are indicated with complete Capitalized lettering).
SH2 domains were arrayed as GST fusion proteins and detected using anti-GST primary antibodies and near-infrared labeled secondary antibodies. In an effort to present a dataset with minimal false positives, we chose an empirical cutoff based on the array average across all peptide spots to classify interactions (Figure 1A). In cases where the intensity of the signal for an individual SH2-domain binding event exceeded the mean intensity of all the peptides on the membrane by three-fold were scored as “array positives” [22]. Non-binding was judged in cases where the intensity of a spot was less than the mean intensity of all spots on the membrane and these were scored as “array negatives”. Peptides with signal intensities between 1X and 3X mean were scored as “indeterminate” and ascribed as neither array positive binding interactions nor array-negative non-binders. […] This signature may be indicative of promiscuity differences between phosphopeptides or there may be a subset of peptides which interact in a nonspecific fashion with either the GST fusion tag or one of the antibodies used for detection, resulting in false positives. […]

Substance | Array positive (Ptpn11_N SH2 domain) | Peptide array intensity (X mean) (Ptpn11_N SH2 domain) [X Mean] | SH2 Domains >3X (panel of 50 SH2 domains) | 2X < SH2 Domains < 3X (panel of 50 SH2 domains)
ELSNpYICMGGK [11-mer phosphotyrosine peptide, IRS-1 (Y465)] | No (Peptide spots with average intensity values between 1X-3X the array mean were defined as ‘indeterminate’. Those with intensities below 1X mean were defined as array negative) | 0.9 | – | –
DPNGpYMMMSPS [11-mer phosphotyrosine peptide, IRS-1 (Y662)] | No (Peptide spots with average intensity values between 1X-3X the array mean were defined as ‘indeterminate’. Those with intensities below 1X mean were defined as array negative) | 0.54 | – | –
SIEEpYTEMMPA [11-mer phosphotyrosine peptide, IRS-1 (Y551)] | No (Peptide spots with average intensity values between 1X-3X the array mean were defined as ‘indeterminate’. Those with intensities below 1X mean were defined as array negative) | 0.56 | – | –
APVSpYADMRTG [11-mer phosphotyrosine peptide, IRS-1 (Y1012)] | No (Peptide spots with average intensity values between 1X-3X the array mean were defined as ‘indeterminate’. Those with intensities below 1X mean were defined as array negative) | 0.59 | – | –
AKHKpYLIALYT [D02] | – | – | BRDG1, BRK | BCAR3, BMX, FER, PLCG2_N, PTPN11_C, RIN1, SHF, TENC1
SVIVpYKMKSGT [E04] | – | – | BCAR3, BMX, BRDG1, TENC1 | BRK, FER, MIST, PTPN11_C, SHF, SHD, SYK_C
RQLNpYIQVELK [G14] | – | – | BCAR3, MIST, PTPN11_N, SHE | BRDG1, SHD, TENC1
VIMLpYVFHRKR [B11] | – | – | BCAR3, BMX, BRDG1, BRK, DAPP1, FER, MATK, MIST, PI3K1_N, PLCG2_N, PTPN11_N, PTPN11_C, RASA1_C, RIN1, SHB, SHF, SHD, SHE, TENC1 | GRB2, PI3K1_C, PLCG2_C, SH3BP2, SYK_C
VLSYpYSLPRSF [C13] | – | – | CRK, CRKL, Sh2b, SH2D2A, SHF, SYK_C | BRDG1, PLCG2_C, PTPN11_C, SHB
MDGGpYLDQPDN [B04] | – | – | FGR, FYN, LYN, SH2D1B, SHC1, SHIP1, SRC, YES | BLK, HCK, LCK
IGSIpYLFLRKR [A17] | – | – | BCAR3, BMX, BRDG1, BRK, DAPP1, FER, MATK, MIST, PI3K1_N, PLCG2_N, PTPN11_N, PTPN11_C, RASA1_C, RIN1, Sh2b, SHB, SHF, SHD, TENC1 | FGR, GRB2, PI3K1_C, PLCG2_C, SH3BP2, SHE, SYK_C
EGSApYEEVPTS [G20] | – | – | BRK, FGR, LYN, NCK1, SH2D1B, SHC1, YES | BLK, FER, FYN, HCK, GRB7, LCK
DGPLpYVIVEYA [E06] | – | – | ITK, MIST, RASA1_N, SHB, SHF, SHE, SYK_C | SHD, TENC1
SRGDpYMTMQMS [C19] | – | – | PI3K1_C | –
PGMEpYSYDINR [E21] | – | – | BRDG1, GRB7 | LCK, RASA1_N
YPEDpYGDIEIG [D17] | – | – | BMX, BRK, FGR, SLNK, SRC | BLK, FER, FYN, HCK, GRB7, ITK, LCK, LYN, RASA1_N, SH2D1B, SHC1, YES
ATDDpYAVPPPR [A02/H23] | – | – | CRK, CRKL, HCK | SRC
TRDIpYETDpYpYR [A13] | – | – | ABL2, BCAR3, CRK, CRKL, DAPP1, GRB7, PI3K1_C, PLCG2_C | FGR, HCK, RASA1_N, SH2D1B, SRC, FGR, GRB7, LCK, LYN, MIST, RIN1
EQDEpYDIPRHL [H10] | – | – | BRK, CRK, CRKL, FGR, FYN, LCK, LYN, RIN1, SHC1, YES | ABL1, BLK, HCK, PI3K1_N, SH2D1B, SHIP1, SRC
YELPpYNPATDD [H22] | – | – | SLNK | –
CGRSpYRRVSGD [D12] | – | – | BCAR3 | BRDG1, ITK, MIST, PLCG2_N, SHB, SHF, SYK_C, TENC1
SLDEpYGSSPGD [D09] | – | – | SLNK | BLK, LCK

Substance | Array positive (Ptpn11_N SH2 domain) | Peptide array intensity (X mean) (Ptpn11_N SH2 domain) [X Mean] | SH2 Domains >3X (panel of 50 SH2 domains) | 2X < SH2 Domains < 3X (panel of 50 SH2 domains)
HIDYpYKKTTNG [E14] | – | – | BCAR3, BMX, BRDG1, CRK, FER, MIST, PTPN11_C, SHF, TENC1 | CRKL, ITK, PLCG2_N, PLCG2_C, PTPN11_N, RIN1, SH3BP2, SHB, SHD, SYK_C, ZAP70_N
GVSEpYELPEDP [E05] | – | – | BRK, NCK1, PLCG2_C, VAV1, YES | BLK, BMX, DAPP1, FER, FGR, LCK, LYN, RIN1, SH3BP2, SHC1
VLVEpYAAKGNL [F08] | – | – | – | MIST, ZAP70_N
TEPTpYFYVTDY [A14] | – | – | BRK, ITK, RASA1_N | MATK, PLCG2_N, SH2D1B, SYK_C
PPALpYAEPLDS [H15] | – | – | ABL1, ITK, NCK1, RASA1_N, RASA1_C, VAV1, ZAP70_N | ABL2
SDDDpYDDVDIP [A12] | – | – | BRK, NCK1, SLNK | –
RTELpYAVIDIE [G10] | – | – | ABL2, BMX, ITK, MIST, PLCG2_C, RASA1_N, Sh2b, SH2D1B, SHB, SHF, SHE, SYK_C | ABL1, BRK, RASA1_C, SHD, YES
PVAPpYWTSPEK [E01] | – | – | – | ABL1
ATDLpYQVPPGP [H08] | – | – | CRK | CRKL
PQGLpYDLPREP [H20] | – | – | ABL1, CRK, CRKL, NCK1, ZAP70_N | HCK
AEDVpYDVPPPA [A04] | – | – | CRK, CRKL, HCK, NCK1, SRC | FYN, LYN, YES
HHIDpYYKKTSN [F16] | – | – | BCAR3, BMX, BRDG1, FER, PLCG2_N, PTPN11_C, SHF, TENC1 | DAPP1, ITK, MATK, MIST, PI3K1_N, PLCG2_C, PTPN11_N, RIN1, SH3BP2, SHB, SHD, SHIP1
DLSApYASISFQ [C23] | – | – | PTPN11_N, PTPN11_C | SH2D1B, SHD, SHE
DNLPpYVQILKT [E03] | – | – | BRDG1, MIST, PI3K1_N, PTPN11_C, Sh2b, TENC1 | BCAR3, FER, GRAP, MATK, PI3K1_C, PTPN11_N, RIN1, SHD
MCWQpYNPKMRP [B14] | – | – | BCAR3, BMX, BRDG1, FER, MIST, TENC1 | ITK, MATK, PLCG2_N, PLCG2_C, PTPN11_C, SHB, SHF, SHD, SYK_C
PCSVpYVPDEWE [A20] | – | – | BMX, DAPP1, ITK, PLCG2_N, PLCG2_C, RASA1_N, RASA1_C, SH2D1B, VAV1 | FGR, FYN, MATK, SH2D2A, SHC1
NGILpYLEDPVN [G22] | – | – | Sh2b, SHB, SHF, SYK_C | –
FESRpYQQPFED [H06] | – | – | ABL1, ABL2, CRK, CRKL, HCK, ITK, NCK1, RASA1_N, RASA1_C, VAV1 | MATK, PLCG2_N, SH2D2A, SRC
ETDYpYRKGGKG [B02] | – | – | BCAR3, BRDG1, BRK, TENC1 | BMX, MIST, PLCG2_N, RIN1, SHF, SYK_C
AKTGpYENFIHL [B10] | – | – | GADS, GRB2, GRB7, MIST, PI3K1_N, SH2D2A, SH3BP2, TENC1 | BRDG1, BRK
DLKSpYLRSLRP [A22] | – | – | BCAR3, BMX, BRDG1, FER, MIST, PLCG2_N, Sh2b, SHB, SHF, TENC1 | BRK, ITK, MATK, PLCG2_C, PTPN11_C, RIN1, SHD, SYK_C
